Experimental data: EP0283349A1, “Process for obtaining tannic principles of vegetable origin, cosmetologic and pharmaceutical composition containing the tannic principle obtained by the process” (Lamaison, Jean-Louis, priority 1987, dated 1988)

What follows are molecules tested against élastase pancréatique porcine (Sus scrofa, UniProt P00772) (assay: Elastase inhibition (method of SHINOGI et al., substrate Boc-Ala-ONp)). Details: mass of inhibitor giving 50 % inhibition after 30 minutes; referred to the dry plant drug for plant extracts, real mass for defined principles.
Sequence of élastase pancréatique porcine (P00772 27-266): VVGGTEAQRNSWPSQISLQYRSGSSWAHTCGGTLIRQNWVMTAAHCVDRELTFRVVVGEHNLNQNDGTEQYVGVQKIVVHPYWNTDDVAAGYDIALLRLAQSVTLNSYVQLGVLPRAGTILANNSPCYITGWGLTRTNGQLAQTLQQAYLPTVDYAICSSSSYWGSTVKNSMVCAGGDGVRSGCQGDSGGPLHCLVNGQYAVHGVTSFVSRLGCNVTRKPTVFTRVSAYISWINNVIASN
Assay type: biochemical
Description: Les dosages d'activités inhibitrices de l'élastase, de la trypsine et de l'α-chymotrypsine ont été réalisés selon la méthode de SHINOGI et al. (1), la quantité d'inhibiteur étant adaptée de manière à obtenir une inhibition voisine de 50 % (I50) après 30 minutes, les extraits étant généralement préparés à partir de 0,5 g de poudre (250) de plante sèche dans 20 ml d'éthanol à 50 % V/V, les principes définis en solution à 1 mg/ml d'éthanol à 50 % V/V.

I 50 Elas-tase [µg] | Molecule
50 | Acide tannique
250 | O=c1c(O)c(-c2ccc(O[C@@H]3O[C@H](CO)[C@@H](O)[C@H](O)[C@H]3O)c(O)c2)oc2cc(O)cc(O)c12 [Quercétine 4'-Glucoside]
600 | Hamamélitanin
35 | Catéchine-épicatéchine
250 | Ethoxazo-rutine

Molecule | I 50 Elas-tase [µg]
C[C@@H]1O[C@@H](OC[C@H]2O[C@@H](Oc3c(-c4ccc(O)c(O)c4)oc4cc(O)cc(O)c4c3=O)[C@H](O)[C@@H](O)[C@@H]2O)[C@H](O)[C@H](O)[C@H]1O [Rutoside] | 150
O=c1c(O)c(-c2ccc(O)cc2O)oc2cc(O)cc(O)c12 [Morine] | 60
O=c1c(O[C@@H]2O[C@H](CO)[C@H](O)[C@H](O)[C@H]2O)c(-c2ccc(O)c(O)c2)oc2cc(O)cc(O)c12 [Hypéroside] | 275
O=C(O)c1cc(O)c(O)c(O)c1 [Acide gallique] | 100
